In patent publication US8946407B2, “Fructosylated mangiferin and preparation method therefor and use thereof” (priority 2011, dated 2015):

How the values were obtained:
[1] = tested on: Human chronic myelogenous leukemia cell strain K562; assay: K562 cell toxicity test (MTT method); type: cell-based; conditions: for Average suppression rate (%) / OD value: 48 h; for Average suppression rate (%): K562; for OD value: K562, A490 MTT
Protocol: Human chronic myelogenous leukemia cell strain K562, purchased from the cell bank of Shanghai Cell Research Institute of Chinese Academy of Sciences; mangiferin, purchased from Nanjing Zelang Medical Science and Technology Co., Ltd.; monofructosyl-β (2,6)-mangiferin is prepared with the method described in this invention, with purity over 99% as determined by high performance liquid chromatography. Drug liquid and its storage: weigh 8.44 mg mangiferin powder and dissolve it in 2 mL DMSO to prepare it into 10 mmol/L mangiferin; weigh 11.68 mg monofructosyl-β (2,6)-mangiferin powder and dissolve it in 2 mL DMSO to prepare it into 10 mmol/L monofructosyl-β (2,6)-mangiferin; they are filtered with a 0.22 μm filter, packed in 1000 μL/doff and stored at −20° C., meanwhile, high concentration DMSO is filtered with a 0.22 μm filter for use as control. The K-562 cells are cultured in RPMI-1640 complete culture medium containing inactivated calf serum at volume fraction of 10%, 100 U penicillin and streptomycin, in an incubating box at 37° C., with 5% CO2 and at saturated humidity. Take K-562 cells in logarithmic growing phase, adjust its concentration to 1×10^5/mL, and inoculate them in a 96-hole culture plate, each hole with 90 μL of suspended cell liquid, the experimental group is treated with mangiferin and monofructosyl-β (2,6)-mangiferin at different end concentration (1, 5, 10, 20, 50, 100, 150 and 200 μmol/L), with 10 μL in each hole, the DMSO solvent control group is added with 20 μL PBS containing the corresponding drug solvent, and the blank group is added with 20 μL PBS. For each drug concentration, 6 repeating holes are provided. The culture plate is put back into the cell culture box, add 20 μL MTT (5 mg/mL) solution after 48 h, and after further incubation of 4 h in the culture box, add triple liquid 100 μL into each hole, put it still overnight to allow full dissolution of crystal. Vibrate it with oscillator for 20 min and determine the light absorption at 490 nm with a fully automatic ELISA instrument, and calculate the average suppression rate, the suppression rate (%)=(control group A490−test group A490)/control group A490), the experiment was repeated three times. Relevant analysis and Student t tests in Microsoft Excel 2003 were used, and data are presented in.

dissolvability at 25° C. = type: physicochemical
Protocol: As determined, at 25° C., the dissolvability of monofructosyl-β-(2,6)-mangiferin is 350 g/L, and that of bifructosyl-β-(2,6)-mangiferin is 1200 g/L, respectively 3.5×103 times and 1.2×104 times that of mangiferin (0.1 g/L) under the same condition.

dissolvability (dissolvability at 25° C.) [g/L]	Molecule	Average suppression rate (%) ([1]; 1 μmol/L)	OD value ([1]; 1 μmol/L)	Average suppression rate (%) ([1]; 5 μmol/L)	OD value ([1]; 5 μmol/L)	Average suppression rate (%) ([1]; 10 μmol/L)	OD value ([1]; 10 μmol/L)	Average suppression rate (%) ([1]; 20 μmol/L)	OD value ([1]; 20 μmol/L)	Average suppression rate (%) ([1]; 50 μmol/L)	OD value ([1]; 50 μmol/L)	Average suppression rate (%) ([1]; 100 μmol/L)	OD value ([1]; 100 μmol/L)	Average suppression rate (%) ([1]; 150 μmol/L)	OD value ([1]; 150 μmol/L)	Average suppression rate (%) ([1]; 200 μmol/L)	OD value ([1]; 200 μmol/L)	effect on K562 cell proliferation (in words) ([1]; after acting for 48 h, MTT method)
	O=c1c2cc(O)c(O)cc2oc2cc(O)c([C@@H]3O[C@H](CO)[C@@H](O)[C@H](O)[C@H]3O)c(O)c12 [mangiferin]	7.74	0.952 ± 0.034	8.39	0.945 ± 0.041	10.75	0.921 ± 0.036	3.52	0.995 ± 0.086	−3.9	1.096 ± 0.143	−16.08	1.198 ± 0.048	−10.61	1.141 ± 0.049	−14.56	1.182 ± 0.175	
1200	bifructosyl-β-(2,6)-mangiferin																	
350	monofructosyl-β-(2,6)-mangiferin	4.53	0.982 ± 0.039	8.79	0.938 ± 0.102	8.19	0.944 ± 0.053	8.56	0.941 ± 0.040	8.87	0.938 ± 0.041	23.19	0.790 ± 0.098	36.53	0.653 ± 0.026	41.48	0.602 ± 0.021	can markedly suppress the proliferation
